The target of one assay is T1, TXK (Homo sapiens, UniProt P42681).
T1 sequence (P42681 1-527): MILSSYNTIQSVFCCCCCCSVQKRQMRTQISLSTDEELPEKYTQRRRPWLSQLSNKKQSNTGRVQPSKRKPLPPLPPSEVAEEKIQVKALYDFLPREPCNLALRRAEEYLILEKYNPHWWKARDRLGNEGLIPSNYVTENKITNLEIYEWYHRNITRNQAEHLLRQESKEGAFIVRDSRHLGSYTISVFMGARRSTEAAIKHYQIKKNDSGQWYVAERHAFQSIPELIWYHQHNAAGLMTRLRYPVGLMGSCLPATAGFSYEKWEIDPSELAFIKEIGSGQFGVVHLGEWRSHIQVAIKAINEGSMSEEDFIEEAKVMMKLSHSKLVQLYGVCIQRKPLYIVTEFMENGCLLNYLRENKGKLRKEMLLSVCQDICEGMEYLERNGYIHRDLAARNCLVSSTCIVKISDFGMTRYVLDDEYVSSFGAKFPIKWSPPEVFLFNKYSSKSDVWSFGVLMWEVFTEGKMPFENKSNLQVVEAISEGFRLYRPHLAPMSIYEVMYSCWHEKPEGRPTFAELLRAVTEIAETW
As to the kind of experiment: Inhibition of TXK kinase. The assay is classed as biochemical. Conditions: 1% DMSO. From the text:
The Z′-LYTE® biochemical assay is a fluorescence-based, coupled-enzyme assay based on the differential sensitivity of phosphorylated and non-phosphorylated peptides to proteolytic cleavage. A peptide substrate for a kinase is labeled with two fluorophores, one at each end, to form a FRET pair.
In the primary reaction, the kinase transfers the gamma-phosphate of ATP to a single tyrosine, serine, or threonine residue in the synthetic FRET-peptide substrate. In the secondary reaction, a site-specific protease recognizes and cleaves non-phosphorylated FRET-peptides. Cleavage disrupts FRET between the donor and acceptor fluorophores on the FRET-peptide, whereas uncleaved, phosphorylated FRET-peptides maintain FRET. An inhibitory activity of a compound is thus determined from its effect on the cleavage of the synthetic FRET-peptide substrate.
Inhibition of BMX, BTK, ITK, and TXK kinases by a test compound is determined in 50 mM HEPES, pH 7.5, 0.01% BRIJ-35, 10 mM MgCl2, and 1 mM EGTA in the presence of 1% DMSO by volume.
(§1) Inhibition of BMX, BTK, PIK3C-D, ITK, TEC, and TXK kinases by compound A2 was measured using one of the assays described in Examples 2A and 3A.

The target of another assay is T2, TEC (Homo sapiens, UniProt P42680).
T2 sequence (P42680 1-631): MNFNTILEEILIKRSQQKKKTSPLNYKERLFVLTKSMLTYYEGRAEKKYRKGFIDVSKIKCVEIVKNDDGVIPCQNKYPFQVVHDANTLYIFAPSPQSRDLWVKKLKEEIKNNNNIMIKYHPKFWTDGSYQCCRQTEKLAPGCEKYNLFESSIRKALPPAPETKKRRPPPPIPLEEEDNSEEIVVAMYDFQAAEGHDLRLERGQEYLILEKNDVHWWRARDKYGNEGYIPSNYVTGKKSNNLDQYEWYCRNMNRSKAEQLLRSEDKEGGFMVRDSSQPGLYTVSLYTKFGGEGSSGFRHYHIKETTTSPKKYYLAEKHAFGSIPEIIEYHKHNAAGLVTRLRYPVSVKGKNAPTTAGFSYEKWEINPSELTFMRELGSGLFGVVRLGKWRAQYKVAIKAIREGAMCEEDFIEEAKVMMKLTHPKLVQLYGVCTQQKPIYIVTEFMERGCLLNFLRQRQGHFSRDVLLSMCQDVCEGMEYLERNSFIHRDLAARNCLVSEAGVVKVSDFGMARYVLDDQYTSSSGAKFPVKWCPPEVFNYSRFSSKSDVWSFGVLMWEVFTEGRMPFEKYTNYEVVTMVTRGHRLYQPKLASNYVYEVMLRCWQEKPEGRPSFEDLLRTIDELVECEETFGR
As to the kind of experiment: Inhibition of TEC kinase. Format: binding. Conditions: 1% DMSO. As to the method: Binding of an ALEXA FLUOR® conjugate or “tracer” to a kinase is detected by addition of a Eu-labeled anti-tag antibody. Binding of the tracer and antibody to a kinase results in a high degree of FRET, whereas displacement of the tracer with a kinase inhibitor results in a loss of FRET. An inhibitory activity of a compound is thus determined from the extent of the FRET signal loss. Inhibition of ITK and TEC kinases by a test compound is determined in the presence of 1% DMSO.
as §1

In assay [1] the test system is human epidermal keratinocytes, neonatal, or HEKn cells (wild-type ERBB1). The assay is described as follows: Cell proliferation assay, HEKn. Format: cell-based. Conditions: Keratinocyte, 72 hrs. The protocol:
(§2) The biological activity of a test compound was determined using cell proliferation assays. The activity against wild-type ERBB 1 was determined using A431 human epidermoid carcinoma cells (ATCC) and human epidermal keratinocytes, neonatal, or HEKn cells (ATCC).
(§3) A431 cells were grown in DMEM (Invitrogen) supplemented with 10% FBS (Lonza), 1% penicillin-streptomycin, and 2 mM glutamine (Invitrogen). HEKn cells were grown in EPILIFE® (Invitrogen) supplemented with HKGS (Invitrogen). HCC827 and H1975 were cultured in RPMI1640 supplemented with 10% FBS (Lonza), 1% penicillin-streptomycin, and 2 mM glutamine (Invitrogen). Cells were maintained and propagated at 37° C. and 5% CO2 in a humidified cell culture incubator. Aliquots of cells from early passages were preserved for liquid nitrogen storage. Frozen vials of cells were thawed at 37° C. water bath. Cells were spun to remove freezing medium. The newly revived frozen cells were adapted in culture for 10 days before used for compound testing. Cells used in the assay were less than 20 subculture passages or 3 months in culture.
(§4) The test compounds were dissolved in dimethylsulfoxide (DMSO) and stored at -20° C. before testing. […] The cells were placed in a culture incubator overnight. Next day, test compounds in DMSO were added to the cells and placed back in the culture incubator for 72 hrs. In the meantime, the cell numbers at time zero of the compound treatment (T0) was measured by ENERCOUNT® (Codex BioSolutions). At the end of the compound treatment, the cell numbers were again measured by EnerCount as T72 values. The untreated controls (Ctrl) were cell numbers recorded from the 0.1% DMSO treatment. The percent growth inhibition by the test compound was calculated by the formula: (1- (T72-T0)/(Ctrl-T0)) x 100.
(§5) The results are summarized in Tables 1 and 2, wherein A represents a value no greater than 500 nM, B represents a value greater than 500 nM but no greater than 1 µM, C represents a value greater than 1 µM but no greater than 5 µM, and D represents a value greater than 5 µM; and wherein A′ represents a ratio of greater than 10, B′ represents a ratio of no greater than 10 but no less than 5, C′ represents a ratio of no greater than 5 but no less than 2, and D′ represents a ratio of no greater than 2.

In assay [2] the test system is A431 human epidermoid carcinoma cells (wild-type ERBB1). As to the kind of experiment: Cell proliferation assay, A431. Conditions: A-431, 72 hrs. The assay is classed as cell-based. The protocol: as §2, §3, §4, §5

Where only a bound is given, the exact number is not on record here.

As usually defined, the IC50 is the point on the concentration scale where inhibition reaches its midpoint. High values mean weaker potency in that assay, low ones greater potency in that assay. Usually GI50 stands for the concentration that inhibits growth by half. Higher therefore signals lower sensitivity of the cells. On to `C=CC(=O)N1CCCC[C@@H](n2c(NC(=O)c3ccnc(C)c3)nc3cccc(OC4CCN(C(C)=O)CC4)c32)C1` [Compound A2, (R)-N-(7-((1-acetylpiperidin-4-yl)oxy)-1-(1-acryloylazepan-3-yl)-1H-benzo[d]imidazol-2-yl)-2-methylisonicotinamide], for which the IC50 at TXK and on TEC was at most 10 nM in each case. The Inhibition entry at TXK and at TEC was “A (A represents a value no greater than 10 nM or no less than 90% inhibition)” each time. The GI50 in assay [1] is over 5000 nM; in assay [2], 500 to 1000 nM.

Source of the values: patent US20230271938A1, “BENZIMIDAZOLES FOR USE IN THE TREATMENT OF CANCER AND INFLAMMATORY DISEASES” (Capella Therapeutics, Inc., priority 2015, published 2023).
